Experimental findings from patent US20040192641A1, “Special preparation of anticancer drugs made by novel nanotechnology” (priority 2003, published 2004) are described below.

One may read the LD50 as the dose at which mortality reaches 50%. A low value points to greater toxicity. As usually defined, the inhibition is how much of the control response was suppressed. A low value points to a response near the control.

For series [1], the system named is Hela. Briefly: Inhibition of tumor cell proliferation, Hela. In kind it is cell-based, human. The note with it: 72 hours. On the procedure:
(§1) Human tumor cell lines: Hela leukemia HL-60, malignant melanocarcinoma B16, oral epidermoid carcinoma (KB), lung carcinoma (A549), breast carcinoma MCF-7, adenocarcinoma of stomach.
(§2) Animal tumor cell lines: Walker carcinoma, LLC-WRC-256, malignant melanoma (RMMI 1846), 3T3, and S-180 sarcoma (CCRF-180). All lines were routinely cultured in the RPMI1640 medium supplemented 20% fetal calf serum. The experiment was carried out in 96 microplate, each well had 5×10^5 cells and given desired concentration of 1 μg/ml (1×10^−6 g/ml) drug. Then the plate was incubated at 37° C. in an atmosphere of humidified air enriched with 5 percent carbon dioxide for 72 hours.
(§3) Inhibition percent rate of tumor cell proliferation was obtained according to the bellow formula. [formula]
(§4) Animal tumor cell lines: Walker carcinoma, LLC-WRC-256, malignant melanoma (RMMI 1846), 3T3, and S-180 sarcoma (CCRF-180). All lines were routinely cultured in the RPMI1640 medium supplemented 20% fetal calf serum. The experiment was carried out in 96 microplate, each well had 5×10^5 cells and given desired concentration of 1 μg/ml (1×10^−6 g/ml) drug. Then the plate was incubated at 37° C. in an atmosphere of humidified air enriched with 5 percent carbon dioxide for 72 hours. Concentration of CUR or PK-CUR-NP is 50ng/ml.
(§5) Animal tumor cell lines: Walker carcinoma, LLC-WRC-256, malignant melanoma (RMMI 1846), 3T3, and S-180 sarcoma (CCRF-180). All lines were routinely cultured in the RPMI1640 medium supplemented 20% fetal calf serum. The experiment was carried out in 96 microplate, each well had 5×10^5 cells and given desired concentration of 1 μg/ml (1×10^−6 g/ml) drug. Then the plate was incubated at 37° C. in an atmosphere of humidified air enriched with 5 percent carbon dioxide for 72 hours. Concentration of ELE or PK-ELE-NP is 50 ng/ml.
Animal tumor cell lines: Walker carcinoma, LLC-WRC-256, malignant melanoma (RMMI 1846), 3T3, and S-180 sarcoma (CCRF-180). All lines were routinely cultured in the RPMI1640 medium supplemented 20% fetal calf serum. The experiment was carried out in 96 microplate, each well had 5×10^5 cells and given desired concentration of 1 μg/ml (1×10^−6 g/ml) drug. Then the plate was incubated at 37° C. in an atmosphere of humidified air enriched with 5 percent carbon dioxide for 72 hours. Concentration of CPT or PK-CPT-NP is 50 ng/ml.

A short description of series [2]: Acute toxicity LD50.
The test system of series [3] is S180. Briefly: Growth of transplanted tumor, S180 (tumor weight). The conditions noted are these: 20 mg/kg i.p. from second day, tumor weight on 12th day. In kind it is in vivo, mice. Here is the method: (§6) Male mice, weight 20-22 g, were used in the experiment. 1×10^7 tumor cells were injected to mouse and PK-HHT-NP injected intraperitoneally began second day. All mice were sacrificed on the 12th days, isolated the tumor and weighed and calculated the inhibition rate of tumor weight.
(§7) Male mice, weight 20-22 g, were used in the experiment. 1×10^7 tumor cells were injected to mouse and CUR and PK-CUR-NP injected intraperitoneally began second day. All mice were sacrificed on the 12th days, isolated the tumor and weighed and calculated the inhibition rate of tumor weight.
(§8) Male mice, weight 20-22 g, were used in the experiment. 1×10^7 tumor cells were injected to mouse and ELE injected intraperitoneally began second day. All mice were sacrificed on the 12th days, isolated the tumor and weighed and calculated the inhibition rate of tumor weight.
(§9) Male mice, weight 20-22 g, were used in the experiment. 1×10^7 tumor cells were injected to mouse and CPT injected intraperitoneally began second day. All mice were sacrificed on the 12th days, isolated the tumor and weighed and calculated the inhibition rate of tumor weight.

The test system of series [4] is oral epidermoid carcinoma (KB). Briefly: Inhibition of tumor cell proliferation, KB. The format is cell-based, human. The conditions noted are these: 72 hours; for Inhibition (%): 50 ng/ml. Here is the method:
as §1, §2, §3, §4, §5
Animal tumor cell lines: Walker carcinoma, LLC-WRC-256, malignant melanoma (RMMI 1846), 3T3, and S-180 sarcoma (CCRF-180). All lines were routinely cultured in the RPMI1640 medium supplemented 20% fetal calf serum. […]

The test system of series [5] is Lewis. Briefly: Growth of transplanted tumor, Lewis (tumor weight). In kind it is in vivo, mice. The note with it: 20 mg/kg i.p. from second day, tumor weight on 12th day. Here is the method: as §6, §7, §8, §9
Series [6] deals with Human promyelocytic leukemia cells (HL-60). Briefly: Induced differentiation of HL-60 cells (NBT reduction). The format is cell-based. The conditions noted are these: 0.1 μg/ml (10×10^−7 g/ml). Here is the method:
(§10) Human promyelocytic leukemia cells (HL-60) were grown in RPMI Medium 1640 supplemented with 10% (v/v) heat-inactivated FBS (56° C. for 30 min) at 37° C. in a humidified 95% air/5% CO2 atmosphere. Cells were seeded at a level of 2×10^5 cells/ml. Cells were allowed to attain a maximum density of 1.2×10^6 cells/ml before being passed by dilution into fresh medium to a concentration of 2×10^5 cells/ml. Differentiation was induced in HL-60 cells by treatment with 0.1 μg/ml ([…]) of CUR or PK-CUR-NP. Cell differentiation was measured by the ability of cells to reduce NBT.
as §10, with “ELE” for “CUR”, “PK-ELE-NP.” for “PK-CUR-NP.”, “NBT. Increasing NBT % means that cancer cells are differentiation.” for “NBT.”
as §10, with “CPT” for “CUR”, “PK-CPT-NP.” for “PK-CUR-NP.”, “NBT. Increasing NBT % means that cancer cells are differentiation.” for “NBT.”

Series [7] deals with tumor-bearing mice. Briefly: Survival time of tumor-bearing mice (ELE, CPT). The note with it: mouse, in vivo. The text has this: The acceptable criterion for determining the anti-tumor efficacy of the formulation over the free ELE and PK-ELE-NP are the determination of the life span prolongation.
The number of dead cells in the peritoneal fluid of mice treated with PK-ELE-NP formulation increased life span when compared to free ELE.
The acceptable criterion for determining the anti-tumor efficacy of the formulation over the free drug and PK-CPT-NP are the determination of the life span prolongation. The number of dead cells in the peritoneal fluid of mice treated with PK-CPT-NP formulation increased life span when compared to free CPT.

Setting [8] is: mice, I.P. (injection in abdominal cavity).

For `C=C1C[C@@]2(O)O[C@@]3(C[C@H]2C(C)C)[C@@H](C)CC[C@@H]13` [CUR, Curcumol], the “Inhibition (%)” value in series [1] (50 ng/ml) worked out at 67.2 ± 10.4%; in series [4], 60.8 ± 9.1%. The LD50 in series [2] (setting [8]) is listed as 325 mg/kg. In addition, the “Inhibition (%) of transplanted tumor” value stood at 63.7 ± 7.3% in series [3] and 68.9 ± 7.8% in series [5]. The “NBT % (percentage of cells capable of reducing NBT)” value in series [6] was determined as 68.5 ± 8.5%.

For `CC[C@@]1(O)C(=O)OCc2c1cc1n(c2=O)Cc2cc3ccccc3nc2-1` [CPT, Camptothecin], in series [7], the “Increase in life span T/C (%)” value was found to be 144.3% and the “MST” value amounted to 33 ± 4.5 days. This compound also yielded an inhibition at 0.05 µg/mL in series [1] (Homo sapiens, HeLa, 50 ng/ml) of 60.8 ± 12.2%. Besides, in series [2] (mouse, in vivo, ip), the LD50 came to 76 mg/kg. Further, the “Inhibition (%) of transplanted tumor” value in series [3] was 63.2 ± 12.1%. In series [5], the “Inhibition (%) of transplanted tumor” value worked out at 60.8 ± 10.4%. In addition, the “NBT % (percentage of cells capable of reducing NBT)” value in series [6] was 65.8 ± 9.1%.

On to `COC(=O)C[C@](O)(CCCC(C)(C)O)C(=O)O[C@@H]1C(OC)=C[C@]23CCCN2CCc2cc4c(cc2[C@H]13)OCO4` [HHT, Homoharringtonine], for which the inhibition at 1 µg/mL in series [1] (Homo sapiens, HeLa, 1 μg/ml) amounted to 75.6 ± 8%; in series [4] (Homo sapiens, 1 μg/ml), 80 ± 8.5%. In addition, the 50% lethal dose (LD50) in series [2] (mouse, in vivo, ip) was 3.3 ± 0.29 mg/kg. The “Inhibition (%) of transplanted tumor” value was determined as 76 ± 8% in series [3] and 70 ± 6% in series [5].

On to Eelemene, for which the “Increase in life span T/C (%)” value in series [7] worked out at 144.3%. Moreover, in series [7], the “MST” value is 33.2 days. Also, the “Inhibition (%)” value in series [1] (50 ng/ml) is reported as 69.8 ± 11.2%; in series [4] it was 60.2 ± 13.2%. In series [2] (setting [8]), this compound gave an LD50 of 318 mg/kg. Further, the “Inhibition (%) of transplanted tumor” value in series [3] came to 67.57 ± 9.1%; in series [5], 65.8 ± 10.5%. The “NBT % (percentage of cells capable of reducing NBT)” value in series [6] is 69.5 ± 10.1%.
